Laboratory results published in PubChem BioAssay AID1918935 (Molecular Pharmacology Branch, DTP, NCI, 2023).
Where “and” joins values, the source holds several entries; their conditions need not be identical. Equal entries are not always repeated.

Tested on: 324938-238-R-J1-PDC complex spheroid viability
Test: Anticancer human tumor 324938-238-R-J1-PDC patient-derived bladder carcinoma cell line growth inhibition
Settings: for viability, T/C: stronger effect = lower value
In short: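 Drug combinations with the LSD1 inhibitor iadademstat tested on tumor cells co-cultured as spheroids with endothelial cells and mesenchymal stem cells. Concentrations descended in half-log increments from clinical Cmax or 10 microM.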

[1] = curve of first compound, second compound 0.1 µM
[2] = curve of first compound, second compound 0.316 µM
[3] = curve of first compound, second compound 1 µM
[4] = curve of first compound, second compound 3.16 µM
[5] = curve of first compound, second compound 10 µM
[6] = second compound 0.1 µM, first compound 0.0316 µM
[7] = second compound 0.1 µM, first compound 0.1 µM
[8] = second compound 0.1 µM, first compound 0.316 µM
[9] = second compound 0.1 µM, first compound 1 µM
[10] = second compound 0.316 µM, first compound 0.0316 µM
[11] = second compound 0.316 µM, first compound 0.1 µM
[12] = second compound 0.316 µM, first compound 0.316 µM
[13] = second compound 0.316 µM, first compound 1 µM
[14] = second compound 1 µM, first compound 0.0316 µM
[15] = second compound 1 µM, first compound 0.1 µM
[16] = second compound 1 µM, first compound 0.316 µM
[17] = second compound 1 µM, first compound 1 µM
[18] = second compound 3.16 µM, first compound 0.0316 µM
[19] = second compound 3.16 µM, first compound 0.1 µM
[20] = second compound 3.16 µM, first compound 0.316 µM
[21] = second compound 3.16 µM, first compound 1 µM
[22] = second compound 10 µM, first compound 0.0316 µM
[23] = second compound 10 µM, first compound 0.1 µM
[24] = second compound 10 µM, first compound 0.316 µM
[25] = second compound 10 µM, first compound 1 µM
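Also: spheroids also contain HUVEC and human MSCs and agents combined with iadademstat; spheroids exposed to agents for 7 days before readout.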

O=C(c1cc(Cc2n[nH]c(=O)c3ccccc23)ccc1F)N1CCN(C(=O)C2CC2)CC1 + NC1CCC(NC2CC2c2ccccc2)CC1
IC50 [1]: 2900 nM
IC50 [2]: 2760 nM
IC50 [3]: 3970 nM
IC50 [4]: 2720 nM
IC50 [5]: 2480 nM
viability, T/C [6]: 80.8%
viability, T/C [7]: 80.9%
viability, T/C [8]: 86.4%
viability, T/C [9]: 68.1%
viability, T/C (second compound 0.1 µM, first compound 3.16 µM): 49.9%
viability, T/C (second compound 0.1 µM, first compound 10 µM): 41.5%
viability, T/C [10]: 78.7%
viability, T/C [11]: 82.7%
viability, T/C [12]: 83.7%
viability, T/C [13]: 64.4%
viability, T/C (second compound 0.316 µM, first compound 3.16 µM): 49.8%
viability, T/C (second compound 0.316 µM, first compound 10 µM): 36.5%
viability, T/C [14]: 77.7%
viability, T/C [15]: 71.3%
viability, T/C [16]: 80%
viability, T/C [17]: 69.3%
viability, T/C (second compound 1 µM, first compound 3.16 µM): 53.3%
viability, T/C (second compound 1 µM, first compound 10 µM): 37.9%
viability, T/C [18]: 73.2%
viability, T/C [19]: 74.1%
viability, T/C [20]: 73.2%
viability, T/C [21]: 71%
viability, T/C (second compound 3.16 µM, first compound 3.16 µM): 46.9%
viability, T/C (second compound 3.16 µM, first compound 10 µM): 39.6%
viability, T/C [22]: 70.6%
viability, T/C [23]: 65.8%
viability, T/C [24]: 77%
viability, T/C [25]: 59.3%
viability, T/C (second compound 10 µM, first compound 3.16 µM): 49.9%
viability, T/C (second compound 10 µM, first compound 10 µM): 45.1%

Nc1ncn(C2CC(O)C(CO)O2)c(=O)n1 (centres undefined) + NC1CCC(NC2CC2c2ccccc2)CC1
IC50 [1]: 177 nM
IC50 [2]: 256 nM
IC50 [3]: 159 nM
IC50 [4]: 129 nM
IC50 [5]: 237 nM
viability, T/C (second compound 0.1 µM, first compound 0.00316 µM): 71.8%
viability, T/C (second compound 0.1 µM, first compound 0.01 µM): 66%
viability, T/C [6]: 59.3%
viability, T/C [7]: 56.1%
viability, T/C [8]: 44%
viability, T/C [9]: 40.3%
viability, T/C (second compound 0.316 µM, first compound 0.00316 µM): 74.9%
viability, T/C (second compound 0.316 µM, first compound 0.01 µM): 67.1%
viability, T/C [10]: 68.4%
viability, T/C [11]: 55.1%
viability, T/C [12]: 45.6%
viability, T/C [13]: 42%
viability, T/C (second compound 1 µM, first compound 0.00316 µM): 73.2%
viability, T/C (second compound 1 µM, first compound 0.01 µM): 58.7%
viability, T/C [14]: 60.4%
viability, T/C [15]: 50.7%
viability, T/C [16]: 46.2%
viability, T/C [17]: 47%
viability, T/C (second compound 3.16 µM, first compound 0.00316 µM): 61.9%
viability, T/C (second compound 3.16 µM, first compound 0.01 µM): 58.6%
viability, T/C [18]: 54.3%
viability, T/C [19]: 53.4%
viability, T/C [20]: 44.5%
viability, T/C [21]: 39.5%
viability, T/C (second compound 10 µM, first compound 0.00316 µM): 63.5%
viability, T/C (second compound 10 µM, first compound 0.01 µM): 67.3%
viability, T/C [22]: 57.9%
viability, T/C [23]: 59.1%
viability, T/C [24]: 45.2%
viability, T/C [25]: 37%

O=C(C=Cn1cnc(-c2cc(C(F)(F)F)cc(C(F)(F)F)c2)n1)NNc1cnccn1
viability, T/C (compound 0.00316 µM): 85.4% and 60.8%
viability, T/C (compound 0.01 µM): 44.7% and 28.6%
viability, T/C (compound 0.0316 µM): 17.7% and 14.8%
viability, T/C (compound 0.1 µM): 7.73% and 4.52%
viability, T/C (compound 0.316 µM): 4.23% and 3.45%
viability, T/C (compound 1 µM): 2.35% and 1.64%
IC50 (curve of compound): 8.59 nM and 4.69 nM

Nc1ncn(C2CC(O)C(CO)S2)c(=O)n1 (centres undefined)
viability, T/C (compound 0.000949 µM): 97.4% and 106%
viability, T/C (compound 0.003 µM): 88.2% and 90.7%
viability, T/C (compound 0.00949 µM): 72.2% and 69.6%
viability, T/C (compound 0.03 µM): 51.5% and 46.5%
viability, T/C (compound 0.0949 µM): 33.2% and 27.5%
viability, T/C (compound 0.3 µM): 22.2% and 17.4%
IC50 (curve of compound): 32.8 nM and 24.8 nM
